Source: ChEMBL document CHEMBL1133416, “Solid phase synthesis of diamides as potential bone resorption inhibitors” (Bioorg Med Chem Lett, 2000)

Tests used:
Adenosinetriphosphatase [1] = biological target: T1, Adenosinetriphosphatase (Gallus gallus, UniProt Q9I8A2); assay: Compound was tested for in vitro inhibition of osteoclast vacuolar acid pump; format: functional
Adenosinetriphosphatase [2] = biological target: T1, Adenosinetriphosphatase; assay: Compound was tested for inhibition of osteoclast vacuolar ATPase derived from chicken medullary bone
[3] = Compound was tested at 9 uM for inhibition of V-ATPase mediated proton transport in membrane vesicles derived from chicken medullary bone

T1 sequence (Q9I8A2 whole entry): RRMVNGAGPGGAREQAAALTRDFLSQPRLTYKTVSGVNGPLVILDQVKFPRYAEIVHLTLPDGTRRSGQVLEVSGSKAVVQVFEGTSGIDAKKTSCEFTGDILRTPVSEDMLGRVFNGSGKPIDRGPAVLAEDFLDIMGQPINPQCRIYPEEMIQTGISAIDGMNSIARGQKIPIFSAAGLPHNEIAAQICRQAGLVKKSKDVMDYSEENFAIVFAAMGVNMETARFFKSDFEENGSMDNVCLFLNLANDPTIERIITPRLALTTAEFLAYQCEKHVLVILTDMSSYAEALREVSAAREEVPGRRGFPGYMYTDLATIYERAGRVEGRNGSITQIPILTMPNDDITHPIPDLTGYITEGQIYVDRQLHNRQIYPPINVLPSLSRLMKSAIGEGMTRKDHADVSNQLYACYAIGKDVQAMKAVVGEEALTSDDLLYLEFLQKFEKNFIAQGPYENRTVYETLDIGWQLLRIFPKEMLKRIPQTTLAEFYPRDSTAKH

Row | IC50 (Adenosinetriphosphatase [1]) | inhibition [3] | SMILES | IC50 (Adenosinetriphosphatase [2])
1 | 4900 nM |  | CC1(C)CC(NC(=O)c2cccc(CC(=O)Nc3ccc(Cl)c(Cl)c3)c2)CC(C)(C)N1 | 
2 |  |  | CO/C1=C\C(C)=C\[C@@H](C)[C@@H](O)[C@@H](C)C/C(C)=C/C=C/[C@H](OC)[C@@H]([C@@H](C)[C@@H](O)[C@H](C)[C@@]2(O)C[C@@H](O)[C@H](C)[C@@H](C(C)C)O2)OC1=O [BAFILOMYCIN A1] | 30 nM
3 |  |  | CO/C(=C\C=C\c1cc2cc(Cl)c(Cl)cc2[nH]1)C(=O)NC1CC(C)(C)NC(C)(C)C1 | 49 nM
4 | 1500 nM | 51% | CC1(C)CC(NC(=O)/C=C/C=C/C(=O)Nc2ccc(Cl)c(Cl)c2)CC(C)(C)N1 | 
